Like-named read-outs stand apart in the source and are kept apart here. Some results are limits rather than exact numbers.

What all share (format): biochemical
One assay concerns the target T1, Trypsin-3 (Homo sapiens, UniProt P35030).
T1 sequence (P35030 1-304): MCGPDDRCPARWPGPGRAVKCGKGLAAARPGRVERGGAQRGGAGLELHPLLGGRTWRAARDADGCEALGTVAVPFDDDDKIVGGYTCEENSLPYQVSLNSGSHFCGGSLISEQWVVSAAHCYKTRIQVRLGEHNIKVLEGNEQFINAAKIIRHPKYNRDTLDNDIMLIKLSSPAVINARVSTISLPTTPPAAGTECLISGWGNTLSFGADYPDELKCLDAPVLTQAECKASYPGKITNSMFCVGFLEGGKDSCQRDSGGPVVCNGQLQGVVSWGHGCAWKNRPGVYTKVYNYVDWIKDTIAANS
The experiment in a line: Jump dilution, determination of inhibition type. Conditions: inhibitor at 10 times IC50, 15 min, diluted 10-fold or 100-fold; Rev./Irrev. Also noted: purchased R&D. On the procedure:
The dissociation of the enzyme-inhibitor complex was monitored by substrate hydrolysis over time ([Joossens et al., 2006]).
Because ABPs are designed to be irreversible serine protease inhibitors, the IC50 is exclusively used as a first discriminatory evaluation. When an inhibitor is irreversible, its IC50 value not only depends on the substrate and enzyme concentration but also on the time of incubation with the enzyme before the reaction is started by adding the substrate. […] The progress curve in the presence of an irreversible inhibitor will show final velocities equal to zero (Figure 6C). In contrast, for a reversible inhibitor, progress curves have a non-zero final steady-state velocity (Figure 6A) ([McWhirter, 2021]). To corroborate the inhibitory mechanism of the compounds, jump-dilution assays were performed. These use an inhibitor concentration of 10-fold the IC50 for the incubation, and a posteriori, the reaction mixture is diluted 10-fold or 100-fold before adding the substrate. In the case of an irreversible inhibitor, enzymatic activity is not regained (Figure 6D), whereas, in the case of a reversible compound, a slow release of the inhibitor and a gradual increase of the enzymatic activity rate is observed (Figure 6B) ([Copeland, 2013]; [McWhirter, 2021]). The jump-dilution assays confirmed the behavior described by the progress curves.
2.2.2 Jump dilution results
Supplementary Table 2. Jump dilution of selected alkyne and desthiobiotin probes against a panel of trypsin-like serine proteases. […]
# R R DtBa 3 tryptase Thrombin uPA CatG
32b H Alk Irrev. Irrev. Rev. Irrev. Rev.
45b DtB Irrev. Irrev. Rev. N.D. N.D.
33b Alk Irrev. Irrev. Rev. Irrev. Rev.
46b Cl DtB Irrev. Irrev. Rev. N.D. N.D.
34b H Alk Rev. Rev. Rev. Irrev. Rev.
50b DtB Rev. Rev. Rev. Irrev. Rev.
35b Alk Rev. Rev. Rev. Irrev. Rev.
52b NHCOMe DtB Rev. Rev. Rev. Irrev. Rev.
36b Alk Rev. Rev. Rev. Irrev. Rev.
54b Cl DtB Rev. Rev. Rev. Irrev. Rev.
37b Alk Irrev. Irrev. N.D. Irrev. Irrev.
55b H DtB Irrev. Irrev. N.D. Irrev. Irrev.
38b Alk Irrev. Irrev. N.D. Irrev. Irrev.
56b NHCOMe DtB Irrev. Irrev. N.D. Irrev. Irrev.
39b Alk Irrev. Irrev. N.D. Irrev. Rev.
57b Cl DtB Irrev. Irrev. N.D. Irrev. Rev.
41b H Alk Irrev. Irrev. Irrev. N.D. N.D.
31b Pro-Lys H Alk Irrev. Irrev. Irrev. Irrev. N.D. a Alk: ABP precursor bearing an alkyne; DtB: desthiobiotin probe b Panel of serine proteases abbreviations: urokinase plasminogen activator (uPA), cathepsin G (catG) N.D.: IC50 is greater than 10µM, and jump dilution was not performed
2.2.3 Progress curves and Jump dilution experiments
Kinetic assays were performed in the following manner. The inhibitor was mixed with the substrate, and the buffer solution with the enzyme was added at the time zero. The progress curves show the release of para-nitroaniline (pNA) or 7-amino-4-methyl coumarin (AMC) as a function of time.
To monitor the dissociation of the inhibitor-enzyme, aliquots of the enzyme were incubated at 37 °C without and with the inhibitor at a concentration 10 times higher than its IC 50. The enzyme […]
min, the aliquots were diluted 10-fold or 100-fold into the substrate concentration and assay buffer used for the IC50 determination. The dissociation of the enzyme-inhibitor complex was monitored by substrate hydrolysis over time. Blue lines represent the control where no inhibitor was present. Pink lines represent the assay with inhibitor.

In assay [1] the target is T2, Thrombin (recombinant thrombin) (Homo sapiens, UniProt P00734).
T2 construct: purchased R&D
The experiment in a line: IC50 determination, spectrophotometric protease assay. On the procedure:
(§1) The IC50 values were determined using a spectrophotometric assay. All the experiments were conducted in duplicate. The readout consisted of evaluating the protease-mediated release of the chromophore para-nitroaniline (pNA) or fluorophore 7-amino-4-methyl coumarin (AMC) moieties from the respective substrates. Enzymatic activity was measured for 30 min at 37°C. All compounds were initially screened at three concentrations (10, 1, and .1 μM) to estimate the range of the IC50 value. Those which were able to reduce protease activity by at least 50% at a concentration of 10 μM were submitted to an exact IC50 determination. […] A third independent experiment was performed when the standard deviation of the two independent experiments was higher than […]. IC50 values were obtained by fitting the data with the four-parameter logistics equation using GraphPad Prism 9.
(§2) The conditions for each protease are described as follows, the concentration of substrate used was at the corresponding Km.

In assay [2] the target is T3, Trypsin-3 (recombinant trypsin-3) (Homo sapiens, UniProt P35030).
T3 construct: purchased R&D
T3 sequence (P35030 1-304): T1 sequence (P35030 1-304)
The description is as above. On the procedure:
as §1, §2

Assay [3] has as its target T4, uPA (recombinant urokinase plasminogen activator) (Homo sapiens, UniProt P00749).
T4 construct: purchased HYPHEN BioMed
Described as above. On the procedure:
as §1, §2

The target of assay [4] is T5, TLCK-treated pancreatic bovine chymotrypsin (Bos taurus, UniProt P00766).
T5 construct: TLCK-treated pancreatic bovine chymotrypsin (Sigma-Aldrich); purchased Sigma-Aldrich; host or cells: bovine pancreas
The description is as above. On the procedure: as §1, §2

Assay [5] concerns the target T6, β-tryptase (recombinant tryptase β-2) (Homo sapiens, UniProt P20231).
T6 construct: purchased EnzoLife Sciences
The description is as above. On the procedure:
as §1, §2

Assay [6] deals with T7, Cathepsin G (cathepsin G human neutrophil) (Homo sapiens, UniProt P08311).
T7 construct: Cathepsin G (cathepsin G human neutrophil, Sigma-Aldrich); purchased Sigma-Aldrich; host or cells: human neutrophil
T7 sequence (P08311 21-255): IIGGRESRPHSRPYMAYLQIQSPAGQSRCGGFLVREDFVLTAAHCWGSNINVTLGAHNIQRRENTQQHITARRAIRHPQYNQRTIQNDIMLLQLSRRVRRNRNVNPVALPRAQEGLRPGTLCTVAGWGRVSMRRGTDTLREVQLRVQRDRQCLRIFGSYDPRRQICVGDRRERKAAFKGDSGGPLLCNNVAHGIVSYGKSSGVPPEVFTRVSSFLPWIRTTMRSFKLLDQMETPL
The assay is described as above. On the procedure: as §1, §2

[7] abbreviates: alkyne probes, 15 min preincubation at 37°C, mean ± SD.
Setting [8] is: read-out: Thrombin IC50, desthiobiotin probes, 15 min preincubation at 37°C, mean ± SD.
The mark [9] stands for this setting: read-out: Trypsin-3 IC50, desthiobiotin probes, 15 min preincubation at 37°C, mean ± SD.
Where [10] appears, read: read-out: uPA IC50, desthiobiotin probes, 15 min preincubation at 37°C, mean ± SD.
Where [11] appears, read: read-out: ChTryp IC50, desthiobiotin probes, 15 min preincubation at 37°C, mean ± SD.
[12] abbreviates: read-out: β-tryptase IC50, desthiobiotin probes, 15 min preincubation at 37°C, mean ± SD.
Setting [13] is: read-out: CatG IC50, desthiobiotin probes, 15 min preincubation at 37°C, mean ± SD.

T6 sequence (P20231 31-275): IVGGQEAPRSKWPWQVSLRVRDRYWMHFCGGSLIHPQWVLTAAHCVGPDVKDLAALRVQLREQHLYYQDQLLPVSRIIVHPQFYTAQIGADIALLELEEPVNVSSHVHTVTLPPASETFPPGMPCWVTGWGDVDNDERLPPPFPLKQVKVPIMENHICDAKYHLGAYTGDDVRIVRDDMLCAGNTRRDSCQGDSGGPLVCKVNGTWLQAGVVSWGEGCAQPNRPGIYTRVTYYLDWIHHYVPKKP

Turning to `C#CCCCOC(=O)NC(CCCNC(=N)N)P(=O)(Oc1ccccc1)Oc1ccccc1` (stereo not drawn) [32b], the “Trypsin-3 jump dilution result” value at Trypsin-3 was “Irrev”. Further, the IC50 in assay [1] was 850 ± 130 nM; in assay [2], 30 ± 7 nM; in assay [3], 4800 ± 80 nM; in assay [4], over 10000 nM; in assay [5] it was 3740 ± 530 nM; in assay [6] it was 7570 ± 580 nM.
For `C#CCCCOC(=O)NC(CCCNC(=N)N)P(=O)(Oc1ccc(Cl)cc1)Oc1ccc(Cl)cc1` (stereo not drawn) [33b], the “Trypsin-3 jump dilution result” value on Trypsin-3 is on record as “Irrev”. Moreover, the IC50 in assay [1] is 110 ± 7 nM; in assay [2], 40 ± 8 nM; in assay [3], 250 ± 30 nM; in assay [4] it was over 10000 nM; in assay [5], 170 ± 10 nM; in assay [6], 2760 ± 50 nM.
`C#CCCCOC(=O)NC(Cc1ccc(NC(=N)N)cc1)P(=O)(Oc1ccccc1)Oc1ccccc1` (stereo not drawn) [34b]: the “Trypsin-3 jump dilution result” value at Trypsin-3 is “Rev”. In addition, the IC50 in assay [1] is 8490 ± 2250 nM; in assay [2] it was 1 ± 0.3 nM; in assay [4], over 10000 nM; in assay [5], 630 ± 30 nM; in assay [6], 450 ± 20 nM.
Turning to `C#CCCCOC(=O)NC(Cc1ccc(NC(=N)N)cc1)P(=O)(Oc1ccc(NC(C)=O)cc1)Oc1ccc(NC(C)=O)cc1` (stereo not drawn) [35b], on Trypsin-3, the “Trypsin-3 jump dilution result” value was “Rev”. The IC50 in assay [1] is 1110 ± 50 nM; in assay [2] it was under 1 nM; in assay [3] it was 5 ± 1 nM; in assay [4] it was over 10000 nM; in assay [5], 50 ± 3 nM; in assay [6], 60 ± 6 nM.
Regarding `C#CCCCOC(=O)NC(Cc1ccc(NC(=N)N)cc1)P(=O)(Oc1ccc(Cl)cc1)Oc1ccc(Cl)cc1` (stereo not drawn) [36b], the “Trypsin-3 jump dilution result” value on Trypsin-3 was “Rev”. For the same compound, the IC50 in assay [1] was 1770 ± 50 nM; in assay [2], under 1 nM; in assay [3], 5 ± 0.3 nM; in assay [4] it was 3230 ± 1210 nM; in assay [5] it was 70 ± 20 nM; in assay [6], 340 ± 8 nM.
With `C#CCCCOC(=O)NC(c1ccc(NC(=N)N)cc1)P(=O)(Oc1ccccc1)Oc1ccccc1.O=C(O)C(F)(F)F` (stereo not drawn) [37b, Pent-4-yn-1-yl ((diphenoxyphosphoryl)(4-guanidinophenyl)methyl)carbamate trifluoroacetate salt], at Trypsin-3, the “Trypsin-3 jump dilution result” value is listed as “Irrev”. In addition, the IC50 in assay [1] is over 10000 nM; in assay [2] it was 230 ± 10 nM; in assay [3] it was 1790 ± 3 nM; in assay [4], over 10000 nM; in assay [5], 900 ± 100 nM; in assay [6], 640 ± 30 nM.
For the compound `C#CCCCOC(=O)NC(c1ccc(NC(=N)N)cc1)P(=O)(Oc1ccc(NC(C)=O)cc1)Oc1ccc(NC(C)=O)cc1` (stereo not drawn) [38b, Pent-4-yn-1-yl ((bis(4-acetamidophenoxy)phosphoryl)(4-guanidinophenyl)methyl) carbamate], the “Trypsin-3 jump dilution result” value at Trypsin-3 is listed as “Irrev”. Besides, the IC50 in assay [1] is over 10000 nM; in assay [2], 40 ± 15 nM; in assay [3], 1520 ± 400 nM; in assay [4] it was over 10000 nM; in assay [5] it was 120 ± 20 nM; in assay [6], 130 ± 10 nM.
`C#CCCCOC(=O)NC(c1ccc(NC(=N)N)cc1)P(=O)(Oc1ccc(Cl)cc1)Oc1ccc(Cl)cc1` (stereo not drawn) [39b, Pent-4-yn-1-yl ((bis(4-chlorophenoxy)phosphoryl)(4-guanidinophenyl)methyl)carbamate]: on Trypsin-3, the “Trypsin-3 jump dilution result” value is “Irrev”. Moreover, the IC50 in assay [1] was over 10000 nM; in assay [2], 90 ± 9 nM; in assay [3], 220 ± 60 nM; in assay [4], over 10000 nM; in assay [5], 70 ± 4 nM; in assay [6], 90 ± 22 nM.
Take `C#CCCCOC(=O)NC(C1CCN(C(=N)N)CC1)P(=O)(Oc1ccccc1)Oc1ccccc1` (stereo not drawn) [41b]: the “Trypsin-3 jump dilution result” value at Trypsin-3 is given as “Irrev”. Further, the IC50 in assay [1] is 30 ± 1 nM; in assay [2] it was 40 ± 2 nM; in assay [3], over 10000 nM; in assay [4], over 10000 nM; in assay [5], 8370 ± 440 nM; in assay [6], over 10000 nM. Also, the “uPA IC50” value in assay [3] (setting [7]) is reported as “no inhibition”. Besides, in assay [6] (setting [7]), the “CatG IC50” value is listed as “no inhibition”.
For the compound `C[C@@H]1NC(=O)N[C@@H]1CCCCCC(=O)NCCOCCOCCOCCn1cc(CCCOC(=O)NC(CCCNC(=N)N)P(=O)(Oc2ccccc2)Oc2ccccc2)nn1` (stereo partly drawn) [45b], the “Trypsin-3 jump dilution result” value at Trypsin-3 was “Irrev”. The IC50 in assay [1] (setting [8]) was 610 ± 170 nM; in assay [2] (setting [9]) it was 220 ± 20 nM; in assay [3] (setting [10]), over 10000 nM; in assay [4] (setting [11]), over 10000 nM; in assay [5] (setting [12]), 800 ± 50 nM; in assay [6] (setting [13]) it was over 10000 nM.
As to `C[C@@H]1NC(=O)N[C@@H]1CCCCCC(=O)NCCOCCOCCOCCn1cc(CCCOC(=O)NC(CCCNC(=N)N)P(=O)(Oc2ccc(Cl)cc2)Oc2ccc(Cl)cc2)nn1` (stereo partly drawn) [46b], the “Trypsin-3 jump dilution result” value at Trypsin-3 is “Irrev”. The half-inhibitory concentration (IC50) in assay [1] (setting [8]) is 40 ± 6 nM; in assay [2] (setting [9]) it was 70 ± 2 nM; in assay [3] (setting [10]) it was 420 ± 50 nM; in assay [4] (setting [11]), over 10000 nM; in assay [5] (setting [12]) it was 40 ± 6 nM; in assay [6] (setting [13]) it was over 10000 nM.

Broadly, the IC50 is the midpoint of a concentration-inhibition curve.
